# Like-named read-outs stand apart in the source and are kept apart here.
# What was measured:
# [1] = Phase I dose escalation: dose-limiting toxicities, MTD and RP2D (Schedule 2/1); format: in vivo
# From the text: This was a phase I, dose-finding, open-label, non-comparative study of PD 0332991 in patients with Rb-positive solid tumours or non-Hodgkin's lymphoma (NHL). […] On the basis of the low frequency of Rb expression in small-cell lung cancer and […] ([Lee et al, 1987]; [Yokota et al, 1988]; [Shimizu et al, 1994]), patients with both tumour types were excluded from the trial.
# The primary objectives of this study were to establish the safety profile of PD 0332991 given in a 3-week treatment cycle by identifying dose-limiting toxicities (DLTs), the maximum administered dose and the maximum tolerated dose (MTD), and to establish the recommended dose for phase II studies (RP2D). Secondary objectives included characterisation of single-dose and steady-state pharmacokinetics (PKs) of oral PD 0332991 and evaluation of preliminary antitumour activity.
# Cohorts of patients received escalating doses of PD 0332991 given daily for 2 weeks, followed by 1 week off treatment (Schedule 2/1). Treatment cycles were repeated until the occurrence of disease progression, unacceptable toxicity or withdrawal of consent.
# Three to four evaluable patients were initially enrolled per dose-escalation cohort, and the cohort expanded to six evaluable patients, if a DLT occurred during the first treatment cycle. […] The MTD was defined as the highest dose level for which the incidence of first-cycle DLT was <2/6. Cohorts receiving the MTD were expanded to include a minimum of 12 patients. […]
# [2] = Plasma pharmacokinetics, single dose and steady state; format: in vivo, human; conditions: for AUC(0-t): read-out: AUC(0–10), mean (%CV)
# Protocol: Samples for measurement of PK parameters were collected from all patients pre-dose and at intervals up to 10 h post-dose following a single administration (cycle one, day 1) and after repeated dosing (cycle 1, day 8). In cycle 1, three additional blood samples for PK analysis were collected during the 7-day interval without treatment on days 15, 16 and 17. In addition a sample was collected from patients in the expanded MTD cohort 24 h post-dose on cycle 1, day 1. Urine PK assessments (0–10 h post-dose) were carried out on cycle 1, day 1 in patients in the expanded cohort. Blood draws for PK assessment were also obtained at the same time as ECG testing at the projected time-to-first occurrence of the maximum observed plasma concentration (Cmax). Individual area under the concentration–time curve (AUC) values estimated based on dose and individual apparent clearance (CL/F) was obtained from population PK modelling. Additional PK parameters assessed were the time-to-first occurrence of Cmax (Tmax), the apparent volume of distribution during the terminal phase (Vz/F), the terminal elimination half-life (t1/2) and the drug accumulation ratio (Rac).
# Pharmacokinetics parameters were determined using non-compartmental analyses (WinNonLin version 4.1; Pharsight, Mountain View, CA, USA). Descriptive statistics for PK parameters were summarised by dosing group, day and cycle.
# [3] = test system: absolute neutrophil count (ANC); assay: Pharmacodynamic Emax modelling of change in ANC vs individual AUC; format: in vivo; conditions: Homo sapiens, cycle 1, vs individual AUC, 30 patients, s.e. 11.2, 12.6% CV, read-out: Emax for ANC (change from baseline)
# Protocol: To document the course of changes in absolute neutrophil count (ANC) and platelets over time during the first two cycles of treatment, an exploratory analysis of data available from the weekly safety laboratory tests was carried out. Possible relationships between PD 0332991 exposure and changes in (i) ANC and (ii) platelets were assessed further by fitting a simple model (without baseline) to determine the maximum […] (Emax).
# [4] = test system: Rb-positive human xenograft models; set-up: method as in Fry et al, 2004; conditions: several Rb-positive human xenograft models in vivo; ref Fry et al, 2004; cited from earlier work
smiles,measurement,setting,value
CC(=O)c1c(C)c2cnc(Nc3ccc(N4CCNCC4)cn3)nc2n(C2CCCC2)c1=O [PD 0332991],Dose recommended for phase II study,"[1]; human, in vivo",200 mg QD
same,Maximum administered dose,"[1]; human, in vivo, po",225 mg QD
same,Maximum tolerated dose (MTD),"[1]; oral, Schedule 2/1 (14 days on, 7 days off)",200 mg QD
same,"Cmax, mean (%CV)","[2]; human, in vivo, 225 mg",186 (64) ng ml^−1
same,"Tmax, median (range)","[2]; human, in vivo, 225 mg",4.5 (1.0–7.0) h
same,Cmax,"[2]; human, in vivo, 225 mg, Cmax, mean (%CV)",104 ng/mL
same,Tmax,"[2]; human, in vivo, 225 mg, Tmax, median (range)",4 h
same,AUC(0-t),"[2]; human, plasma, oral, 100 mg, plasma, 100 mg QD, Day 1 (n=2 per footnote a)",333 ng·h/mL
same,Cmax,"[2]; human, plasma, oral, 100 mg, plasma, 100 mg QD, Day 1 (n=3), read-out: Cmax, mean (%CV)",44 ng/mL
same,Tmax,"[2]; human, plasma, oral, 100 mg, plasma, 100 mg QD, Day 1 (n=3), read-out: Tmax, median (range)",4 h
same,AUC(0-t),"[2]; human, plasma, oral, 100 mg, plasma, 100 mg QD, Day 8 (n=2 per footnote a)",433 ng·h/mL
same,Cmax,"[2]; human, plasma, oral, 100 mg, plasma, 100 mg QD, Day 8 (n=3), read-out: Cmax, mean (%CV)",58 ng/mL
same,Tmax,"[2]; human, plasma, oral, 100 mg, plasma, 100 mg QD, Day 8 (n=3), read-out: Tmax, median (range)",4 h
same,AUC(0-t),"[2]; human, plasma, oral, 150 mg, plasma, 150 mg QD, Day 1 (n=2 per footnote a)",622 ng·h/mL
same,Cmax,"[2]; human, plasma, oral, 150 mg, plasma, 150 mg QD, Day 1 (n=4), read-out: Cmax, mean (%CV)",78 ng/mL
same,Tmax,"[2]; human, plasma, oral, 150 mg, plasma, 150 mg QD, Day 1 (n=4), read-out: Tmax, median (range)",6 h
same,AUC(0-t),"[2]; human, plasma, oral, 150 mg, plasma, 150 mg QD, Day 8 (n=3)",1600 ng·h/mL
same,Cmax,"[2]; human, plasma, oral, 150 mg, plasma, 150 mg QD, Day 8 (n=3), read-out: Cmax, mean (%CV)",194 ng/mL
same,Tmax,"[2]; human, plasma, oral, 150 mg, plasma, 150 mg QD, Day 8 (n=3), read-out: Tmax, median (range)",7 h
same,AUC(0-t),"[2]; human, plasma, oral, 200 mg, plasma, 200 mg QD, Day 1 (n=19 per footnote a)",525 ng·h/mL
same,Cmax,"[2]; human, plasma, oral, 200 mg, plasma, 200 mg QD, Day 1 (n=20), read-out: Cmax, mean (%CV)",81 ng/mL
same,Tmax,"[2]; human, plasma, oral, 200 mg, plasma, 200 mg QD, Day 1 (n=20), read-out: Tmax, median (range)",5.7 h
same,AUC(0-t),"[2]; human, plasma, oral, 200 mg, plasma, 200 mg QD, Day 8 (n=8)",1400 ng·h/mL
same,Cmax,"[2]; human, plasma, oral, 200 mg, plasma, 200 mg QD, Day 8 (n=8), read-out: Cmax, mean (%CV)",174 ng/mL
same,Tmax,"[2]; human, plasma, oral, 200 mg, plasma, 200 mg QD, Day 8 (n=8), read-out: Tmax, median (range)",4 h
same,Vd/F,"[2]; human, plasma, oral, steady state, 200-mg QD cohort, read-out: Vz/F (apparent volume of distribution), mean",3240 L
same,half-life,"[2]; human, plasma, oral, steady state, 200-mg QD cohort, read-out: t1/2 (terminal elimination half-life), mean (converted)",26.7 h
same,"CL/F, mean","[2]; steady state, 200-mg QD cohort",88.5 l per hour
same,Emax,[3],88.6%
same,Effect on tumour growth,[4],significantly reduces tumour growth and leads to tumour regression

# From PMC3111206, “Phase I study of PD 0332991, a cyclin-dependent kinase inhibitor, administered in 3-week cycles (Schedule 2/1)” (British Journal of Cancer, 2011)
